# According to ChEMBL document CHEMBL3885881, “DrugMatrix”:
# Species: Rattus norvegicus
# Assay: DrugMatrix - Regimen: Daily Repeat
# Format: toxicity, organism-based, Sprague-Dawley
# Design: regimen Daily Repeat, gender Male, age 6-8 weeks
# Settings: in vivo, po, route oral GAVAGE, vehicle .5 % CMC; for ALANINE AMINOTRANSFERASE / ALBUMIN / ALKALINE PHOSPHATASE / ASPARTATE AMINOTRANSFERASE / BLOOD UREA NITROGEN / CHLORIDE / CHOLESTEROL / CREATINE PHOSPHOKINASE / CREATININE / GLUCOSE / LACTATE DEHYDROGENASE / LIPASE / PHOSPHORUS / POTASSIUM / SODIUM / TOTAL BILIRUBIN / TOTAL PROTEIN / URIC ACID: tissue Plasma
# [1] = 80 mg/kg, 2184 h, tissue Blood, dose level Low, time 91 day
# [2] = 80 mg/kg, 2184 h, dose level Low, time 91 day
# [3] = 80 mg/kg, […], tissue Blood, dose level Low, time 28 day
# [4] = 80 mg/kg, […], dose level Low, time 28 day
# [5] = 150 mg/kg, 72 h, tissue Blood, dose level M1, time 3 day
# [6] = 150 mg/kg, 72 h, dose level M1, time 3 day
smiles,measurement,setting,value
O=c1cc(-c2ccccc2)oc2ccc3ccccc3c12 [BETA-NAPHTHOFLAVONE],EOSINOPHIL,[1],0.76%
same,ERYTHROCYTE COUNT,[1],8.94 x10E6/uL
same,HEMATOCRIT,[1],47.57%
same,HEMOGLOBIN,[1],15.76 G/DL
same,LEUKOCYTE COUNT,[1],15.13 x10E3/uL
same,LYMPHOCYTE,[1],74.26%
same,MEAN CORPUSCULAR HEMOGLOBIN,[1],17.63 pg
same,MEAN CORPUSCULAR HEMOGLOBIN CONCENTRATION,[1],33.13 G/DL
same,MEAN CORPUSCULAR VOLUME,[1],53.23 fL
same,MONOCYTE,[1],1.9%
same,NEUTROPHIL,[1],20.01%
same,PLATELET COUNT,[1],1247.3 x10E3/uL
same,ALANINE AMINOTRANSFERASE,[2],27.5 u/L
same,ALBUMIN,[2],3.68 G/DL
same,ALKALINE PHOSPHATASE,[2],82.2 u/L
same,ASPARTATE AMINOTRANSFERASE,[2],64.9 u/L
same,BLOOD UREA NITROGEN,[2],15.3 mg/dL
same,CHLORIDE,[2],104 MEQ/L
same,CHOLESTEROL,[2],68.4 mg/dL
same,CREATINE PHOSPHOKINASE,[2],81.3 u/L
same,CREATININE,[2],0.51 mg/dL
same,GLUCOSE,[2],148 mg/dL
same,LACTATE DEHYDROGENASE,[2],43.4 u/L
same,LIPASE,[2],20.6 u/L
same,PHOSPHORUS,[2],8.24 mg/dL
same,POTASSIUM,[2],6.5 MEQ/L
same,SODIUM,[2],150 MEQ/L
same,TOTAL BILIRUBIN,[2],0.21 mg/dL
same,TOTAL PROTEIN,[2],7.08 G/DL
same,URIC ACID,[2],0.93 mg/dL
same,ABSOLUTE BASOPHIL,[3],190 cells/µL
same,ABSOLUTE EOSINOPHIL,[3],60 cells/µL
same,ABSOLUTE LYMPHOCYTE,[3],13200 cells/µL
same,ABSOLUTE MONOCYTE,[3],300 cells/µL
same,ABSOLUTE SEGMENTED NEUTROPHIL,[3],1910 cells/µL
same,BASOPHIL,[3],1.18%
same,EOSINOPHIL,[3],0.36%
same,ERYTHROCYTE COUNT,[3],8.59 x10E6/uL
same,HEMATOCRIT,[3],48.64%
same,HEMOGLOBIN,[3],16.08 G/DL
same,LEUKOCYTE COUNT,[3],15.78 x10E3/uL
same,LYMPHOCYTE,[3],83.98%
same,MEAN CORPUSCULAR HEMOGLOBIN,[3],18.78 pg
same,MEAN CORPUSCULAR HEMOGLOBIN CONCENTRATION,[3],33.1 G/DL
same,MEAN CORPUSCULAR VOLUME,[3],56.7 fL
same,MONOCYTE,[3],1.92%
same,NEUTROPHIL,[3],12%
same,PLATELET COUNT,[3],1252.8 x10E3/uL
same,ALANINE AMINOTRANSFERASE,[4],30.4 u/L
same,ALBUMIN,[4],3.64 G/DL
same,ALKALINE PHOSPHATASE,[4],126 u/L
same,ASPARTATE AMINOTRANSFERASE,[4],71.4 u/L
same,BLOOD UREA NITROGEN,[4],13.4 mg/dL
same,CHLORIDE,[4],103.4 MEQ/L
same,CHOLESTEROL,[4],69.8 mg/dL
same,CREATINE PHOSPHOKINASE,[4],116.2 u/L
same,CREATININE,[4],0.48 mg/dL
same,GLUCOSE,[4],156.6 mg/dL
same,LACTATE DEHYDROGENASE,[4],80.8 u/L
same,LIPASE,[4],13 u/L
same,PHOSPHORUS,[4],9.74 mg/dL
same,POTASSIUM,[4],6.34 MEQ/L
same,SODIUM,[4],149.8 MEQ/L
same,TOTAL BILIRUBIN,[4],0.24 mg/dL
same,TOTAL PROTEIN,[4],6.58 G/DL
same,URIC ACID,[4],0.58 mg/dL
same,BASOPHIL,[5],0.43%
same,EOSINOPHIL,[5],0.3%
same,ERYTHROCYTE COUNT,[5],6.69 x10E6/uL
same,HEMATOCRIT,[5],42.2%
same,HEMOGLOBIN,[5],13.2 G/DL
same,LEUKOCYTE COUNT,[5],11.3 x10E3/uL
same,LYMPHOCYTE,[5],85.87%
same,MEAN CORPUSCULAR HEMOGLOBIN,[5],19.73 pg
same,MEAN CORPUSCULAR HEMOGLOBIN CONCENTRATION,[5],31.23 G/DL
same,MEAN CORPUSCULAR VOLUME,[5],63.13 fL
same,MONOCYTE,[5],2.17%
same,NEUTROPHIL,[5],10.17%
same,PLATELET COUNT,[5],1377.33 x10E3/uL
same,ALANINE AMINOTRANSFERASE,[6],41.33 u/L
same,ALBUMIN,[6],3.57 G/DL
same,ALKALINE PHOSPHATASE,[6],337.33 u/L
same,ASPARTATE AMINOTRANSFERASE,[6],68.33 u/L
same,BLOOD UREA NITROGEN,[6],13 mg/dL
same,CHLORIDE,[6],103.33 MEQ/L
same,CHOLESTEROL,[6],100 mg/dL
same,CREATINE PHOSPHOKINASE,[6],163.67 u/L
same,CREATININE,[6],0.4 mg/dL
same,GLUCOSE,[6],179 mg/dL
